Here are results for 64 compounds from PubChem BioAssay AID977613 (Broad Institute, 2014).

The source made the active and inactive calls. The rule behind the calls is not given here.

This assay concerns Broad 7084-01 inhibitor HTS, set 2. The assay can be described thus: single-concentration hits, screen 7084 set 2 (AID 977613).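 Note: host cells are infected with parasite promastigotes that become internalized.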
Take `COc1cccc(NC(=O)N2C[C@H](O)COC[C@H]3O[C@H](CC(=O)NC4CCC4)CC[C@@H]32)c1`: the active concentration was > 10 µM (inactive).

Turning to `CN1C(=O)c2cc(NC(=O)Nc3ccccc3Cl)ccc2OC[C@H]2O[C@H](CC(=O)NCCCN3CCOCC3)CC[C@@H]21`, the active concentration was > 10 µM (inactive).

For `O=C(c1cccc(F)c1)N1CCCCN2[C@H](CO)[C@H](c3ccc(C#CC4(O)CCCC4)cc3)[C@H]2C1`, the active concentration was > 10 µM (inactive).

For the compound `CN1c2ccc(-c3cccc(F)c3)cc2[C@@H]2[C@@H](CCN2C(=O)c2ccccc2F)[C@@H]1CO`, the active concentration was > 10 µM (inactive).

Take `CN(C)CC(=O)N1[C@H](C#N)[C@@H](c2ccccc2-c2ccccc2F)[C@H]1CO`: the active concentration was > 10 µM (inactive).

For the compound `COCC(=O)N1CC2(C1)CN(C(=O)NC1CCCC1)[C@H](CO)c1c2c2ccc(OC)cc2n1C`, the active concentration was > 10 µM (inactive).

In the case of `O=C(C[C@@H]1CC[C@H]2[C@@H](COC[C@H](O)CN2C(=O)Nc2cc(Cl)cc(Cl)c2)O1)NCC1CCCCC1`, the active concentration was > 10 µM (inactive).

As to `CCCC#Cc1ccc([C@@H]2[C@@H](CO)N3C(=O)CN(C(=O)CN4CCOCC4)C[C@@H]23)cc1`, the active concentration is > 10 µM (inactive).

As to `O=S(=O)(c1ccccc1)N1CCCCN2[C@H](CO)[C@@H](c3ccc(C#CC4CCCC4)cc3)[C@H]2C1`, the active concentration was > 10 µM (inactive).

Turning to `O=C(c1cccnc1)N1CC2(C1)[C@H](c1ccccc1)[C@@H](CO)N2Cc1ccc(Cl)cc1`, the active concentration is > 10 µM (inactive).

Regarding `CN1c2ccc(-c3cccc(F)c3)cc2[C@@H]2[C@@H](CCN2C(=O)c2ccccc2F)[C@H]1CO`, the active concentration was > 10 µM (inactive).

As for `O=C(C1CCOCC1)N1CC(=O)N2[C@@H](CO)[C@@H](c3ccc(-c4cccnc4)cc3)[C@@H]2C1`, the active concentration is > 10 µM (inactive).

Turning to `CCC(=O)N1C[C@@H]2[C@H](c3ccccc31)[C@H](CO)N2C(=O)CC`, the active concentration was > 10 µM (inactive).

On to `CN(C)CCCNC(=O)C[C@H]1CC[C@H]2[C@@H](COC[C@@H](O)CN2CC2CC2)O1`, for which the active concentration was > 10 µM (inactive).

On to `Cc1ccccc1S(=O)(=O)N1CC[C@@H]2[C@@H](CO)Nc3ccc(C#Cc4ccccc4)cc3[C@@H]21`, for which the active concentration is > 10 µM (inactive).

Regarding `COc1cccc(CN2CCCCN3[C@H](C2)[C@H](c2ccc(-c4cccnc4)cc2)[C@@H]3CO)c1`, the active concentration was > 10 µM (inactive).

Regarding `CC(C)C#Cc1ccc([C@@H]2[C@H](CO)N3C(=O)CN(C(=O)c4ccc5c(c4)OCO5)C[C@@H]23)cc1`, the active concentration is > 10 µM (inactive).

In the case of `O=C(Cc1ccncc1)N1CC[C@@H]2[C@H](CO)Nc3ccc(-c4ccccc4F)cc3[C@@H]21`, the active concentration was > 10 µM (inactive).

On to `CC(C)C#Cc1ccc([C@H]2[C@@H](CO)N3C(=O)CN(C(=O)Cc4ccccc4)C[C@@H]23)cc1`, for which the active concentration was > 10 µM (inactive).

As for `N#C[C@H]1[C@H](c2ccccc2-c2cccc(F)c2)[C@@H](CO)N1C(=O)CN1CCOCC1`, the active concentration was > 10 µM (inactive).

With `CC=Cc1ccc2n(c1=O)C[C@@H]1[C@@H](CO)[C@H](C(=O)NCC)N(C(=O)CC3CC3)[C@H]21` (mixture of isomers), the active concentration is > 10 µM (inactive).

Consider `COc1cccc(-c2ccc3c(c2)[C@H]2[C@H](CCN2C(=O)Cc2ccccc2)[C@H](CO)N3)c1`, for which the active concentration was > 10 µM (inactive).

With `O=C(C[C@@H]1CC[C@H]2[C@@H](COC[C@@H](O)CN2C(=O)Nc2ccc(C(F)(F)F)cc2)O1)NCC1CC1`, the active concentration was > 10 µM (inactive).

Turning to `COC(=O)C[C@@H]1CC[C@@H]2[C@@H](COc3ccc(NC(=O)c4cccc(Cl)c4)cc3C(=O)N2C)O1`, the active concentration is > 10 µM (inactive).

As to `COC(=O)C[C@@H]1CC[C@@H]2[C@H](COc3ccc(NS(=O)(=O)c4ccccc4Cl)cc3C(=O)N2C)O1`, the active concentration is > 10 µM (inactive).

Regarding `N#C[C@@H]1[C@H](c2ccccc2C2=CCCCC2)[C@H](CO)N1S(=O)(=O)c1cccc(F)c1`, the active concentration was > 10 µM (inactive).

Take `CN(C)C(=O)C[C@H]1CC[C@H]2[C@@H](COC[C@@H](O)CN2C(=O)C2CC2)O1`: the active concentration was > 10 µM (inactive).

Consider `OC[C@@H]1[C@@H]2c3ccccc3NC[C@@H]2N1CC1CCOCC1`, for which the active concentration was > 10 µM (inactive).

On to `N#C[C@@H]1[C@H](c2ccccc2C2=CCCCC2)[C@@H](CO)N1C(=O)C1CCOCC1`, for which the active concentration is > 10 µM (inactive).

For the compound `CCS(=O)(=O)Nc1ccc2c(c1)C(=O)N(C)[C@H]1CC[C@H](CC(=O)N[C@@H]3CCN(Cc4ccccc4)C3)O[C@H]1CO2`, the active concentration is > 10 µM (inactive).

On to `O=C(C[C@@H]1CC[C@H]2[C@@H](COC[C@@H](O)CN2C(=O)Nc2ccc(Cl)cc2)O1)NCC1CC1`, for which the active concentration is > 10 µM (inactive).

With `CN1c2ccc(-c3ccc(C#N)cc3)cc2[C@@H]2[C@@H](CCN2C(=O)Nc2cccc(F)c2)[C@@H]1CO`, the active concentration is > 10 µM (inactive).

`CN(C)C(=O)c1cccc(-c2ccc([C@H]3[C@H](CO)N4CCCCN(CC5CCOCC5)C[C@@H]34)cc2)c1`: the active concentration is > 10 µM (inactive).

Consider `O=C(CC1CC1)N1CC(=O)N2[C@H](CO)[C@H](c3ccc(/C=C/c4ccccc4)cc3)[C@@H]2C1`, for which the active concentration was > 10 µM (inactive).

As to `Cc1ccc(NC(=O)Nc2ccc3c(c2)C(=O)N(C)[C@@H]2CC[C@H](CC(=O)NCC(F)(F)F)O[C@@H]2CO3)cc1`, the active concentration is > 10 µM (inactive).

Turning to `OC[C@@H]1[C@@H]2c3ccccc3NC[C@@H]2N1Cc1cccnc1`, the active concentration was > 10 µM (inactive).

Take `N#C[C@@H]1[C@H](c2ccccc2-c2cccc(F)c2)[C@H](CO)N1S(=O)(=O)c1cccc(F)c1`: the active concentration was > 10 µM (inactive).

In the case of `COc1ccc2c3c(n(C)c2c1)[C@@H](CO)N(C(=O)C1CC1)CC31CN(Cc2ccccc2OC)C1`, the active concentration is > 10 µM (inactive).

`O=S(=O)(c1ccc(F)cc1)N1CCCCN2[C@H](CO)[C@@H](c3ccc(-c4cncnc4)cc3)[C@H]2C1`: the active concentration was > 10 µM (inactive).

`CN1c2ccc(Br)cc2[C@H]2[C@H](CCN2C(=O)Nc2ccccc2F)[C@H]1CO`: the active concentration was > 10 µM (inactive).

`COc1cccc(-c2ccc([C@H]3[C@@H](CO)N4C(=O)CN(C(=O)c5cccnc5)C[C@@H]34)cc2)c1`: the active concentration was > 10 µM (inactive).

For the compound `CCC(=O)N1CC(=O)N2[C@H](CO)[C@@H](c3ccc(-c4ccc(C#N)cc4)cc3)[C@@H]2C1`, the active concentration was > 10 µM (inactive).

Take `O=S(=O)(c1cccs1)N1CCCCN2[C@H](CO)[C@@H](c3ccc(/C=C/c4ccccc4)cc3)[C@@H]2C1`: the active concentration was > 10 µM (inactive).

On to `Cc1ccccc1-c1ccc([C@H]2[C@H]3CN(S(=O)(=O)Cc4ccccc4)CCCCN3[C@H]2CO)cc1`, for which the active concentration was > 10 µM (inactive).

For `O=C(C[C@@H]1CC[C@H]2[C@@H](COC[C@@H](O)CN2Cc2ccc3c(c2)OCO3)O1)Nc1ccccc1`, the active concentration was > 10 µM (inactive).

With `N#C[C@H]1[C@H](c2ccccc2-c2ccc(F)cc2)[C@@H](CO)N1C(=O)Cc1cccnc1`, the active concentration is > 10 µM (inactive).

For `O=C(C[C@@H]1CC[C@@H]2[C@H](COC[C@@H](O)CN2CC2CC2)O1)NCC1CC1`, the active concentration is > 10 µM (inactive).

Turning to `COc1ccccc1-c1ccccc1[C@@H]1[C@H](C#N)N(C(=O)C2CCOCC2)[C@H]1CO`, the active concentration is > 10 µM (inactive).

Consider `CN1C(=O)c2cc(NC(=O)c3cnccn3)ccc2OC[C@H]2O[C@H](CC(=O)NCC3CCCCC3)CC[C@@H]21`, for which the active concentration is > 10 µM (inactive).

Take `O=C([C@@H]1[C@@H](CO)[C@@H]2Cn3c(ccc(C4=CCCCC4)c3=O)[C@H]1N2Cc1nccs1)N1CCCCC1`: the active concentration was > 10 µM (inactive).

In the case of `Cc1cccc(S(=O)(=O)N2C[C@H](O)COC[C@@H]3O[C@H](CC(=O)Nc4ccccc4)CC[C@H]32)c1`, the active concentration is > 10 µM (inactive).

Turning to `CCCNC(=O)N1CC2(CCN(C(=O)c3cccc(F)c3)CC2)c2c([nH]c3cc(OC)ccc23)[C@H]1CO`, the active concentration is > 10 µM (inactive).

`O=C(C[C@H]1CC[C@@H]2[C@H](COC[C@H](O)CN2Cc2cc(F)ccc2F)O1)NCc1ccc(F)cc1`: the active concentration is > 10 µM (inactive).

`CN1C(=O)c2cc(NC(=O)Nc3ccccc3Cl)ccc2OC[C@H]2O[C@@H](CC(=O)NCCCN3CCOCC3)CC[C@H]21`: the active concentration is > 10 µM (inactive).

`O=C(c1cnccn1)N1CC(=O)N2[C@H](CO)[C@H](c3ccc(C#CC4CC4)cc3)[C@@H]2C1`: the active concentration is > 10 µM (inactive).

For `O=C(C1CCOCC1)N1[C@@H](CO)[C@@H](c2ccccc2)C12CN(Cc1cccc(Cl)c1)C2`, the active concentration is > 10 µM (inactive).

As for `CN(C)CC#Cc1ccc([C@H]2[C@H]3CN(C(=O)Nc4ccccc4F)CCCCN3[C@H]2CO)cc1`, the active concentration is > 10 µM (inactive).

On to `O=C(C[C@@H]1CC[C@@H]2[C@H](COC[C@H](O)CN2Cc2ccc3c(c2)OCO3)O1)Nc1ccccc1`, for which the active concentration was > 10 µM (inactive).

`COc1ccccc1C#Cc1ccc2c(c1)[C@@H]1[C@@H](CCN1C(C)=O)[C@@H](CO)N2C`: the active concentration was > 10 µM (inactive).

Take `COc1ccc2c3c([nH]c2c1)[C@@H](CO)N(S(C)(=O)=O)CC31CCN(C(=O)Nc2ccccc2)CC1`: the active concentration is > 10 µM (inactive).

`CCCC#Cc1ccc([C@H]2[C@H](CO)N3C(=O)CN(C(=O)c4cccnc4)C[C@@H]23)cc1`: the active concentration is > 10 µM (inactive).

Turning to `CCC(=O)N1[C@@H](CO)[C@@H](c2ccccc2)C12CN(C(=O)c1ccc3c(c1)OCO3)C2`, the active concentration is > 10 µM (inactive).

Turning to `CN(C)C(=O)[C@@H]1[C@@H](CO)[C@@H]2Cn3c(cccc3=O)[C@@H]2N1C(=O)C1CCC1`, the active concentration is > 10 µM (inactive).

In the case of `O=C(Nc1ccccc1)N1CC(=O)N2[C@H](CO)[C@@H](c3ccc(C#CC4CCCCC4)cc3)[C@@H]2C1`, the active concentration is > 10 µM (inactive).
